Laboratory results as given in ChEMBL document CHEMBL4190279 (Eur J Med Chem, 2017).
Active and inactive are the calls of the source. No cut-off for these calls is given here.

Tests used:
HeLa [1] = assay: Cell cycle arrest in human HeLa cells assessed as accumulation at G1-phase at 0.2 uM after 24 hrs by propidium iodide staining based flow cytometry; assay type: functional
HBL-100 [2] = assay: Potency index, ratio of 5-FU GI50 to compound GI50 for human HBL100 cells; assay type: functional
T47D [3] = assay: Cell cycle arrest in human T47D cells assessed as accumulation at G1-phase at 0.2 uM after 24 hrs by propidium iodide staining based flow cytometry; assay type: functional
T47D [4] = assay: Potency index, ratio of cisplatin GI50 to compound GI50 for human T47D cells; assay type: functional
[5] = GPx-like activity of the compound assessed as velocity for H2O2 reduction by measuring oxidation of PhSH to (PhS)2 at 50 uM measured for 180 secs by spectrophotometric analysis; assay type: functional
SW1573 [6] = assay: Potency index, ratio of 5-FU GI50 to compound GI50 for human SW1573 cells; assay type: functional
SW1573 [7] = assay: Cell cycle arrest in human SW1573 cells assessed as accumulation at G1-phase at 0.2 uM after 24 hrs by propidium iodide staining based flow cytometry; assay type: functional
HeLa [8] = assay: cells; details: Homo sapiens, 48 h
Description: Antiproliferative activity against human HeLa cells after 48 hrs by SRB assay

A549 [9] = assay: Potency index, ratio of cisplatin GI50 to compound GI50 for human A549 cells; assay type: functional
Cholinesterase [10] = target: T1, Cholinesterase (Equus caballus, UniProt P81908); assay: Mixed-type inhibition of equine serum BuChE assessed as enzyme-inhibitor complex using p-nitrophenyl butyrate as substrate by Lineweaver-Burk plot analysis
T1 sequence (P81908 whole entry): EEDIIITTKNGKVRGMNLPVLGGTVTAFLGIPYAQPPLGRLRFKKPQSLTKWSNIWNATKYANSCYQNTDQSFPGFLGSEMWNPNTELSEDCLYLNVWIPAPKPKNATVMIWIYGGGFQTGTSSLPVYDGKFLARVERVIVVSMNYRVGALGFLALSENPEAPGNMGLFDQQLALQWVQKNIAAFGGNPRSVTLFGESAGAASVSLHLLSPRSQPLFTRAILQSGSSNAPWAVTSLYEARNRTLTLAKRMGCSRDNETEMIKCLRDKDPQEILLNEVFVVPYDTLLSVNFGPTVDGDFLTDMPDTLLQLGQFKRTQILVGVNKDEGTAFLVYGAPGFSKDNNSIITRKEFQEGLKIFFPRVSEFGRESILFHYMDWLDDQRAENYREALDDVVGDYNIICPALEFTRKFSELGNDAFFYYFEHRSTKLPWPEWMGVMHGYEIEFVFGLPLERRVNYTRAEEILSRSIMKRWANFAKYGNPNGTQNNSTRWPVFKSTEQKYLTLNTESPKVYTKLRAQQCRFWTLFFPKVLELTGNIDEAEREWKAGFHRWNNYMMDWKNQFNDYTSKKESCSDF

HeLa [11] = assay: Potency index, ratio of 5-FU GI50 to compound GI50 for human HeLa cells; assay type: functional
SW1573 [12] = assay: Cell cycle arrest in human SW1573 cells assessed as accumulation at subG1-phase at 1 uM after 24 hrs by propidium iodide staining based flow cytometry; assay type: functional
SW1573 [13] = assay: Potency index, ratio of cisplatin GI50 to compound GI50 for human SW1573 cells; assay type: functional
WiDr [14] = assay: Cell cycle arrest in human WiDr cells assessed as accumulation at subG1-phase at 1 uM after 24 hrs by propidium iodide staining based flow cytometry; assay type: functional
A549 [15] = assay: Cell cycle arrest in human A549 cells assessed as accumulation at G1-phase at 0.2 uM after 24 hrs by propidium iodide staining based flow cytometry; assay type: functional
T47D [16] = assay: Cell cycle arrest in human T47D cells assessed as accumulation at subG1-phase at 1 uM after 24 hrs by propidium iodide staining based flow cytometry; assay type: functional
HBL-100 [17] = assay: Cell cycle arrest in human HBL100 cells assessed as accumulation at subG1-phase at 1 uM after 24 hrs by propidium iodide staining based flow cytometry; assay type: functional
WiDr [18] = assay: Potency index, ratio of 5-FU GI50 to compound GI50 for human WiDr cells; assay type: functional
A549 [19] = assay: cells; details: Homo sapiens, A549, 48 h
Description: Antiproliferative activity against human A549 cells after 48 hrs by SRB assay

HeLa [20] = assay: Potency index, ratio of cisplatin GI50 to compound GI50 for human HeLa cells; assay type: functional
A549 [21] = assay: Cell cycle arrest in human A549 cells assessed as accumulation at subG1-phase at 1 uM after 24 hrs by propidium iodide staining based flow cytometry; assay type: functional
HBL-100 [22] = assay: Potency index, ratio of cisplatin GI50 to compound GI50 for human HBL100 cells; assay type: functional
Acetylcholinesterase [23] = target: T2, Acetylcholinesterase (Electrophorus electricus, UniProt O42275); assay: Non-competitive inhibition of electric eel AChE assessed as enzyme-substrate-inhibitor complex using p-nitrophenyl acetate as substrate by Lineweaver-Burk plot analysis
T2 sequence (O42275 whole entry): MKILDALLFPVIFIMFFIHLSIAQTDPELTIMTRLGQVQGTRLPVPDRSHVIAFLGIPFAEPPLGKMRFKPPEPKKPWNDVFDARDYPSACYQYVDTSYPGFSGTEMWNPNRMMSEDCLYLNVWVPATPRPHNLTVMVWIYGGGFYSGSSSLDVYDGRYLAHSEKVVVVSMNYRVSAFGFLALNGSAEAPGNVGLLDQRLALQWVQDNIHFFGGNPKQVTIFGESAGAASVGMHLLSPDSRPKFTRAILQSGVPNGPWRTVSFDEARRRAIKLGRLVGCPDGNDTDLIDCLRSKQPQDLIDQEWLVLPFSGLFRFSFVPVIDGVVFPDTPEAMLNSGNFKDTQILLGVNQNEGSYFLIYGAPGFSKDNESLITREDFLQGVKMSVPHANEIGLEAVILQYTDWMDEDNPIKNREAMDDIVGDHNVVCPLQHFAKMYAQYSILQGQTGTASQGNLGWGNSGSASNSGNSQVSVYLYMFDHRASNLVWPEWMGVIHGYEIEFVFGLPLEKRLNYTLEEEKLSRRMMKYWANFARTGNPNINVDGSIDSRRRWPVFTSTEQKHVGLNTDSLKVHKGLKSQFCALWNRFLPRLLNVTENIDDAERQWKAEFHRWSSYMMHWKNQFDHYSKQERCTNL

WiDr [24] = assay: cells; details: Homo sapiens, 48 h
Description: Antiproliferative activity against human WiDr cells after 48 hrs by SRB assay

T47D [25] = assay: cells; details: Homo sapiens, 48 h
Description: Antiproliferative activity against human T47D cells after 48 hrs by SRB assay

Acetylcholinesterase [26] = target: T2, Acetylcholinesterase; assay: Non-competitive inhibition of electric eel AChE assessed as enzyme-inhibitor complex using p-nitrophenyl acetate as substrate by Lineweaver-Burk plot analysis
T47D [27] = assay: Potency index, ratio of 5-FU GI50 to compound GI50 for human T47D cells; assay type: functional
in vitro = details: human, hTERT-BJ cells
Description: Antiproliferative activity against human hTERT-BJ cells after 48 hrs by SRB assay

WiDr [28] = assay: Cell cycle arrest in human WiDr cells assessed as accumulation at G1-phase at 0.2 uM after 24 hrs by propidium iodide staining based flow cytometry; assay type: functional
HBL-100 [29] = assay: cells; details: Homo sapiens, HBL-100, 48 h
Description: Antiproliferative activity against human HBL100 cells after 48 hrs by SRB assay

HBL-100 [30] = assay: Cell cycle arrest in human HBL100 cells assessed as accumulation at G1-phase at 0.2 uM after 24 hrs by propidium iodide staining based flow cytometry; assay type: functional
[31] = GPx-like activity of the compound assessed as half life for H2O2 reduction by measuring oxidation of PhSH to (PhS)2 at 50 uM measured for 180 secs by spectrophotometric analysis relative to control; assay type: functional
SW1573 [32] = assay: cells; details: Homo sapiens, SW1573, 48 h
Description: Antiproliferative activity against human SW1573 cells after 48 hrs by SRB assay

[33] = Selectivity index, ratio of Ki for equine serum BuChE assessed as enzyme-substrate-inhibitor complex to Ki for electric eel AChE assessed as enzyme-substrate-inhibitor complex
WiDr [34] = assay: Potency index, ratio of cisplatin GI50 to compound GI50 for human WiDr cells; assay type: functional
Cholinesterase [35] = target: T1, Cholinesterase; assay: Mixed-type inhibition of equine serum BuChE assessed as enzyme-substrate-inhibitor complex using p-nitrophenyl butyrate as substrate by Lineweaver-Burk plot analysis
[36] = GPx-like activity of the compound assessed as H2O2 reduction by measuring oxidation of PhSH to (PhS)2 at 50 uM measured for 180 secs by spectrophotometric analysis relative to control; assay type: functional
HeLa [37] = assay: Cell cycle arrest in human HeLa cells assessed as accumulation at subG1-phase at 1 uM after 24 hrs by propidium iodide staining based flow cytometry; assay type: functional
Cholinesterase [38] = target: T1, Cholinesterase; assay: Non-competitive inhibition of equine serum BuChE assessed as enzyme-substrate-inhibitor complex using p-nitrophenyl butyrate as substrate by Lineweaver-Burk plot analysis
Cholinesterase [39] = target: T1, Cholinesterase; assay: Non-competitive inhibition of equine serum BuChE assessed as enzyme-inhibitor complex using p-nitrophenyl butyrate as substrate by Lineweaver-Burk plot analysis
[40] = Selectivity index, ratio of GI50 for human hTERT-BJ cells to GI50 for human WiDr cells; assay type: toxicity; details: hTERT-BJ cells versus WiDr cells, read-out: RatioGI50
Acetylcholinesterase [41] = target: T2, Acetylcholinesterase; assay: Uncompetitive inhibition of electric eel AChE assessed as enzyme-substrate-inhibitor complex using p-nitrophenyl acetate as substrate by Lineweaver-Burk plot analysis

For `c1ccc2c(NCCCCCC[Se][Se]CCCCCCNc3c4c(nc5ccccc35)CCCC4)c3c(nc2c1)CCCC3`, the Activity (HeLa [1]) was “Active”, the RatioGI50 (HBL-100 [2]) was “<=306” and the Activity (T47D [3]) was “Active”. For the same molecule, the RatioGI50 (T47D [4]) was “<=162”, the Activity [5] was 36.5 µM/min and the RatioGI50 (SW1573 [6]) was “<=306”. The Activity (SW1573 [7]) was “Active”, the GI50 (HeLa [8]) was 160 nM and the RatioGI50 (A549 [9]) was “<=162”. The Ki (Cholinesterase [10]) was 43.3 nM, the RatioGI50 (HeLa [11]) was “<=306” and the Activity (SW1573 [12]) was “Active”. The RatioGI50 (SW1573 [13]) was “<=162”, the Activity (WiDr [14]) was “Active” and the Activity (A549 [15]) was “Active”. For the same molecule, the Activity (T47D [16]) was greater than 50%, the Activity (HBL-100 [17]) was greater than 50% and the RatioGI50 (WiDr [18]) was “<=306”. For the same molecule, the GI50 (A549 [19]) was 140 nM, the RatioGI50 (HeLa [20]) was “<=162” and the Activity (A549 [21]) was “Active”. For the same molecule, the RatioGI50 (HBL-100 [22]) was “<=162”, the Ki (Acetylcholinesterase [23]) was 26.3 nM and the GI50 (WiDr [24]) was 240 nM. The GI50 (T47D [25]) was 210 nM, the Ki (Acetylcholinesterase [26]) was 26.3 nM and the RatioGI50 (T47D [27]) was “<=306”. The GI50 at 48 h (in vitro) was 240 nM, the Activity (WiDr [28]) was “Active” and the GI50 (HBL-100 [29]) was 170 nM. The Activity (HBL-100 [30]) was “Active”, the T1/2 [31] was 1.14 h and the GI50 (SW1573 [32]) was 130 nM. For the same molecule, the Ratio Ki [33] was 2.8, the RatioGI50 (WiDr [34]) was “<=162” and the Ki (Cholinesterase [35]) was 73.3 nM. The fold change (FC) [36] was 4.7 and the Activity (HeLa [37]) was “Active”.
Molecule `c1ccc([Se]CCCCCCNc2c3c(nc4ccccc24)CCCC3)cc1` has a Ki (Cholinesterase [38]) of 57 nM, an Activity [5] of 19.6 µM/min and a Ki (Cholinesterase [39]) of 57 nM. It also gave a GI50 (HeLa [8]) of 1200 nM, a selectivity ratio [40] of no more than 4.7 and a GI50 (A549 [19]) of 860 nM. For the same molecule, the GI50 (WiDr [24]) was 890 nM, the GI50 (T47D [25]) was 660 nM and the GI50 at 48 h (in vitro) was 2400 nM. The GI50 (HBL-100 [29]) was 2000 nM, the T1/2 [31] was 2.13 h and the GI50 (SW1573 [32]) was 1100 nM. For the same molecule, the Ratio Ki [33] was 7.1, the Ki (Acetylcholinesterase [41]) was 8 nM and the fold change (FC) [36] was 2.5.
